{"source": "patent US11684675B2", "about": "“Dimeric collagen hybridizing peptides and methods of using” (University of Utah Research Foundation, priority 2015, dated 2023)", "key": {"[1]": {"test": "CD refolding (triple helix assembly) at 10° C. monitored at 225 nm", "assay_type": "physicochemical", "procedure": "Conversion was assumed to be at 100% after 96 h incubation at 4° C., and max trimer concentration was measured via CD ellipticity at 10° C. Samples were preheated to 80° C. in the sample cuvette for 10 min before being transferred directly to the sample holder held at a constant 10° C. Sample measurement began immediately. Initial time point for analysis was determined by measuring time for a blank (lx PBS) to thermally equilibrate in these conditions.\nFor all peptides, conversion was assumed to be at 100% after 96 h incubation at 4° C., and max trimer concentration was measured via CD ellipticity at 10° C. Samples were preheated to 80° C. in the sample cuvette for 10 min before being transferred directly to the sample holder held at a constant 10° C. Sample measurement began immediately. Initial time point for analysis was determined by measuring time for a blank (1×PBS) to thermally equilibrate in these conditions. This was set as the zero point for all peptides, as the large jump in CD due to temperature makes the initial jump irresolvable. (A) Rate of assembly of CHP 9 (60, 30, and 15 μM), over 2 h, monitored at 225 nm. (B) Rate of assembly of CHP 9d (30, 15, and 7.5 μM, corresponding to same CHP strand concentration from panel A), over 2 h, monitored at 225 nm. (C) Rate of assembly of CHP 6 (150 and 75 μM), over 2 h, monitored at 225 nm.\nFIGS. 12A and 12B show CD refolding at 10° C. of CMPs monitored at 225 nm. CMPs were heated to 80° C. for 5 minutes before being placed into the CD and initial 2 min of monitored data was removed to eliminate thermal transition. Signal was normalized to that of a fully folded peptide.\nCircular Dichroism: Circular Dichroism (CD) was measured for all peptides at 225 nm. Melting curves were taken on peptides between 10 and 80° C. at a heating rate of 0.5° C./min, with pauses at each 1° C. Refolding experiments were performed after peptide solutions were incubated at 4° C. for at least 12 hours. Concentrations were normalized to strand concentration."}, "[2]": {"tested_on": "crosslinked gelatin films", "test": "Retention of CF-labelled CHPs in crosslinked gelatin films (bound at 4° C., washed at 25° C./r.t.)", "assay_type": "binding, porcine", "settings": "Example 2, washes at 4° C. then 25° C.", "procedure": "(A) Fraction of peptide remaining in a crosslinked gelatin film after 17 h at 25° C. (10 total washes). Values are normalized to fluorescence remaining in wells after 6 washes at 4° C. (>95% removal of CHPs 9r, 6r, and 5r). All washes performed in 1×PBS. (B) CHPs (15 μM) premixed into 10% porcine gelatin and preheated to 80° C. (10 min) before being added to a 96 well plate. Excess CHP-gelatin mixture was removed, then the premix was incubated at 4° C. for 2 hours. Wells were washed at 4° C., 5 times (>95% removal of CHPs 9r, 6r, and 5r). Wells were then washed for 2 hours (6 washes total) at 25° C. to monitor CHP remaining in the well. (C) Fluorescence of CHPs remaining in crosslinked gelatin after incubation at 37° C. overnight without preheating, followed by washing with 1×PBS at 37° C. (20 h). (D) Fluorescence of CHPs remaining in crosslinked gelatin after incubation at 37° C. overnight (80° C. preheating, 10 min), followed by washing with 1×PBS at 37° C. (20 h).\nBinding to Gelatin films. Peptide solutions (20 μM in PBS) were preheated to 80° C. for 10 minutes before being added directly to the crosslinked gelatin films. Peptides were allowed to fully equilibrate with the gel at 4° C. overnight before being exposed to repeated washes (4×30 min) at 4° to fully remove any non-specifically bound peptide. Gelatin wells were then washed at r.t. with PBS (5×1 h, lx 12 h) to measure retention within the gelatin films. […] To eliminate the possibility of these peptides merely becoming physically entrapped within the gelatin after forming triple helix or forming triple helix before binding, binding affinity was verified by producing a premix of the CHPs and Gelatin to eliminated diffusion-limited binding before washing the wells in a similar manner.\nFluorescence Binding: CHP binding to gelatin was monitored by conjugating a fluorescent Carboxyfluorescein (CF) molecule to the N-terminus of each peptide via standard SPPS. Solutions of the fluorescent peptides were heated to 80° C. for 5 min before injecting 50 μL onto a pre-prepared EDC-crosslinked thin gelatin film in a 96 well plate. Peptides incubated overnight at 4° C., then washed with repeated rounds of 4° C. 1×PBS followed by 25° C. 1×PBS."}}}
{"substance": "[(GPO)6G3)2KG [6d]", "values": [{"measurement": "refolding after two hours of incubation", "setting": "[1]; 10° C., same strand concentration", "result": "almost completely refolded in two hours"}, {"measurement": "time at which half refolded", "setting": "[1]; CD refolding, 37.5 μM", "result": 10, "unit": "min"}, {"measurement": "binding affinity to gelatin compared to monomeric form", "setting": "[2]", "result": "clear increase in binding affinity"}]}
